Experimental data published in US7741445B2, “Breast cancer resistance protein (BCRP) antibodies” (University of Maryland, Baltimore, priority 1998, dated 2010).
“Also recorded” adds a separate entry of the source.

Key:
EPP85-181RNOV = details: pancreatic; cited from earlier work
MCF-7/Mitox = details: breast; cited from earlier work
HL-60/MX2 = details: HL-60/MX2, leukemia; cited from earlier work
H209/MX4 = details: H209/MX4, small cell lung; cited from earlier work
[1] = test system: MCF-7/BCRP transfectant clones 6 and 8; experiment: Sulforhodamine-B (SRB) cytotoxicity assay; assay type: cell-based, human; details: compared to clone 19, MCF-7 cells or empty vector-transfected controls
Experimental: (§1) The full-length BCRP cDNA was inserted into the multiple to cloning site of expression vector pcDNA3 (Invitrogen). Following subcloning of the pcDNA3-BCRP construct, DNA sequence analysis was performed to confirm that the insert in the clone that was chosen was in a sense orientation to the CMV promoter of the pcDNA3 vector. MCF-7 cells were transfected with pcDNA3-BCRP, using the calcium phosphate precipitation method (17), selected by culture with geneticin (G418, 1 mg/ml), then subclone by limiting dilution in 96 well flat-bottomed culture plates. Subclones were tested for expression of BCRP mRNA by Northern blot analysis, using radiolabeled Clone 8 cDNA as a probe (FIG. 4A). As a control, MCF-7 cells were also transfected with the empty pcDNA3 vector, then selected by growth in medium containing 1 mg/ml G418 (FIG. 4A).
The sensitivities of the various transfected sublines to chemotherapeutic agents were tested by the sulforhodamine-B (SRB) cytotoxicity assay (14). The LC50, defined as the concentration of drug that caused lethality to 50% of the cells, was calculated. From this, the “Fold of Resistance” (RF) was calculated by dividing the LC50 for a given drug against a transfected cell line by the LC50 of that drug against non-transfected MCF-7 cells. […] FIG. 5 contains the median LC50 values for multiple cytotoxicity experiments for all cell lines and drugs tested. […] The asterisk and solid line in FIG. 4D indicate MCF-7/W cells, the closed squares and dotted lines represent MCF-7/pcDNA3-BCRP clone 8 cells. The vertical bars in the figure represent the standard deviation of six replicate determinations.

EPG85-257RNOV = details: gastric; cited from earlier work
EPF86-079RNOV = details: fibrosarcoma; cited from earlier work
8226/MR20 = details: 8226/MR20, myeloma; cited from earlier work
MCF-7/MXRS250 = details: MCF-7/MXRS250, breast; cited from earlier work
MCF-7/MXRS600 = details: MCF-7/MXRS600, breast; cited from earlier work
H209/MX2 = details: H209/MX2, small cell lung; cited from earlier work
S1M1-3.2 = details: S1M1-3.2, colon; cited from earlier work
MDA-MB-231RNOV = details: breast; cited from earlier work
MCF-7/MXPR = details: breast; cited from earlier work
HT29RNOV = details: colon; cited from earlier work
MCF-7/AdrVp = details: subline selected with doxorubicin in the presence of verapamil; cited from earlier work
MCF-7/AdrVp cells = details: MCF-7/AdrVp vs MCF-7; cited from earlier work
[2] = test system: cells that overexpress Pgp or MRP; details: cited from earlier work
[3] = test system: BCRP-transfected MCF-7 cells; experiment: FTC effects on BBR3390 accumulation and retention, flow cytometry; assay type: cell-based, human; details: 10 uM FTC
Experimental: MCF-7 cells transfected with either the pcDNA3 empty vector or pcDNA3 containing the full-length BCRP cDNA (transfectant clone 8) were cultured as monolayers in tissue culture flasks. The effects of FTC on the accumulation of the aza-anthrapyrazole BBR3390 were measured by exposing these cells to the fluorescent aza-anthrapyrazole BBR3390 (5 uM) in the presence or absence of 10 uM FTC for 60 minutes. Then, the cells were removed from the flasks by trypsinization, and intracellular BBR3390 content was measured by flow cytometry. The effects of FTC on BBR3390 retention were measured by exposing another set of cells (vector control and transfectant clone 8) to 5 uM BBR3390 with and without 10 uM FTC for 60 minutes, washing the cells free of drug, then reincubating the cells for an additional 30 minutes in fresh medium with and without FTC. Intracellular BBR3390 content was measured by flow cytometry. (See FIG. 10).

EPG85-257RDB = details: gastric; cited from earlier work
[4] = test system: BCRP-overexpressing clones 6 and 8 (MCF-7 cells transfected with pcDNA3-BCRP); experiment: Daunorubicin accumulation and retention by flow cytometry; assay type: cell-based, human
Experimental: as §1
Daunorubicin accumulation and retention was examined in the transfected cells by means of flow cytometry.

EPP85-181RDB = details: pancreatic; cited from earlier work
MCF-7/MTX = details: breast; cited from earlier work
MCF-7/VP = details: breast; cited from earlier work
H209/V6 = details: H209/V6, small cell lung; cited from earlier work
H69/AR = details: small cell lung; cited from earlier work
MCF-7/Adr = details: breast; cited from earlier work

## O=C1c2c(O)ccc(O)c2C(=O)c2c(NCCNCCO)ccc(NCCNCCO)c21 [mitoxantrone]
EPP85-181RNOV
  Fold resistance to selecting agent: 27 fold
MCF-7/Mitox
  Fold resistance to selecting agent: 1,206 fold
HL-60/MX2
  Fold resistance to selecting agent: 35 fold
H209/MX4
  Fold resistance to selecting agent: 4 fold
[1]
  resistance / sensitivity of BCRP-overexpressing clones 6 and 8 to chemotherapeutic agent: displayed resistance; also recorded: greatest degree of resistance
EPG85-257RNOV
  Fold resistance to selecting agent: 457 fold
EPF86-079RNOV
  Fold resistance to selecting agent: 7 fold
8226/MR20
  Fold resistance to selecting agent: 36 fold
MCF-7/MXRS250
  Fold resistance to selecting agent: 4,600 fold
MCF-7/MXRS600
  Fold resistance to selecting agent: 7,450 fold
H209/MX2
  Fold resistance to selecting agent: 2 fold
S1M1-3.2
  Fold resistance to selecting agent: 1,435 fold
MDA-MB-231RNOV
  Fold resistance to selecting agent: 93 fold
MCF-7/MXPR
  Fold resistance to selecting agent: 270 fold
HT29RNOV
  Fold resistance to selecting agent: 100 fold
MCF-7/AdrVp
  cross-resistance of MCF-7/AdrVp subline: marked cross-resistance

## rhodamine 123
MCF-7/AdrVp cells
  intracellular accumulation compared to MCF-7 cells: marked reduction

## COc1ccc2c3c([nH]c2c1)[C@H](C=C(C)C)N1C(=O)[C@@H]2CCCN2C(=O)[C@@H]1C3 [FTC, Fumitremorgin C]
[2]
  reversal of resistance: does not reverse resistance
[3]; 5 uM BBR3390, 60 minutes
  effect on accumulation of BBR 3390: able to enhance the accumulation
[3]; 5 uM BBR3390, 60 minutes then 30 minutes in fresh medium
  effect on efflux of BBR 3390: inhibit the efflux

## COc1cccc2c1C(=O)c1c(O)c3c(c(O)c1C2=O)C[C@@](O)(C(C)=O)C[C@@H]3O[C@H]1C[C@H](N)[C@H](O)[C@H](C)O1 [daunorubicin]
[1]
  resistance / sensitivity of BCRP-overexpressing clones 6 and 8 to chemotherapeutic agent: displayed resistance
EPG85-257RDB
  Fold resistance to selecting agent: 1,857 fold
MCF-7/AdrVp cells
  intracellular accumulation compared to MCF-7 cells: marked reduction
[4]; MCF-7/BCRP clone 6 vs pcDNA3 vector control cells
  intracellular steady-state concentration of drug, of that attained in the vector control cells: ~50%
[4]; MCF-7/BCRP clone 8 vs pcDNA3 vector control cells
  intracellular steady-state concentration of drug, of that attained in the vector control cells: approximately 30%
EPP85-181RDB
  Fold resistance to selecting agent: 846 fold
MCF-7/AdrVp
  cross-resistance of MCF-7/AdrVp subline: marked cross-resistance

## CN(Cc1cnc2nc(N)nc(N)c2n1)c1ccc(C(=O)N[C@@H](CCC(=O)O)C(=O)O)cc1 [methotrexate]
MCF-7/MTX
  Fold resistance to selecting agent: 1,000 fold

## CC(=O)O[C@H]1C(=O)[C@@]2(C)[C@H]([C@H](OC(=O)c3ccccc3)[C@]3(O)C[C@H](OC(=O)[C@H](O)[C@@H](NC(=O)c4ccccc4)c4ccccc4)C(C)=C1C3(C)C)[C@]1(OC(C)=O)CO[C@@H]1C[C@@H]2O [paclitaxel]
[1]
  resistance / sensitivity of BCRP-overexpressing clones 6 and 8 to chemotherapeutic agent: remained relatively sensitive
MCF-7/AdrVp
  cross-resistance of MCF-7/AdrVp subline: remains sensitive

## COc1cccc2c1C(=O)c1c(O)c3c(c(O)c1C2=O)CC(O)(C(=O)CO)CC3OC1CC(N2CCOCC2C#N)C(O)C(C)O1 (stereo not shown) [3′-deamino-3′[3-cyano-4-morpholinyl]doxorubicin]
MCF-7/AdrVp
  cross-resistance of MCF-7/AdrVp subline: marked cross-resistance

## COc1cc([C@@H]2c3cc4c(cc3[C@@H](O[C@@H]3O[C@@H]5CO[C@@H](C)O[C@H]5[C@H](O)[C@H]3O)[C@H]3COC(=O)[C@H]23)OCO4)cc(OC)c1O [etoposide]
MCF-7/VP
  Fold resistance to selecting agent: 26 fold
H209/V6
  Fold resistance to selecting agent: 22 fold

## N.N.[Cl][Pt][Cl] [cisplatin]
[1]
  resistance / sensitivity of BCRP-overexpressing clones 6 and 8 to chemotherapeutic agent: remained relatively sensitive
MCF-7/AdrVp
  cross-resistance of MCF-7/AdrVp subline: remains sensitive

## COc1cccc2c1C(=O)c1c(O)c3c(c(O)c1C2=O)C[C@@](O)(C(=O)CO)C[C@@H]3O[C@H]1C[C@H](N)[C@H](O)[C@H](C)O1 [doxorubicin]
H69/AR
  Fold resistance to selecting agent: 100 fold
[1]
  resistance / sensitivity of BCRP-overexpressing clones 6 and 8 to chemotherapeutic agent: displayed resistance
MCF-7/Adr
  Fold resistance to selecting agent: 192 fold

## CC(=O)[C@]1(O)Cc2c(O)c3c(c(O)c2[C@@H](O[C@H]2C[C@H](N)[C@H](O)[C@H](C)O2)C1)C(=O)c1ccccc1C3=O [idarubicin]
[1]
  resistance / sensitivity of BCRP-overexpressing clones 6 and 8 to chemotherapeutic agent: remained relatively sensitive
MCF-7/AdrVp
  cross-resistance of MCF-7/AdrVp subline: not
